Source: PubChem BioAssay AID2060910 (Molecular Pharmacology Branch, DTP, NCI, 2025)

System: 242566-281-R-J2-PDC complex spheroid viability
Experiment: Anticancer human tumor 242566-281-R-J2-PDC patient-derived pancreatic carcinoma cell line growth inhibition [RAS]
Details: for IC50: curve of first compound; for viability, T/C: stronger effect = lower value
Summary of the method: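 Tumour cells grown as complex spheroids with HUVEC endothelial cells and mesenchymal stem cells, treated with RAS pathway inhibitor combinations. Each agent spans half-log steps from near clinical Cmax, or 10 microM where Cmax is unknown.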

[1] = second compound 0.000949 µM, first compound 0.0316 µM
[2] = second compound 0.000949 µM, first compound 0.1 µM
[3] = second compound 0.000949 µM, first compound 0.316 µM
[4] = second compound 0.000949 µM, first compound 1 µM
[5] = second compound 0.000949 µM, first compound 3.16 µM
[6] = second compound 0.000949 µM, first compound 10 µM
[7] = second compound 0.003 µM, first compound 0.0316 µM
[8] = second compound 0.003 µM, first compound 0.1 µM
[9] = second compound 0.003 µM, first compound 0.316 µM
[10] = second compound 0.003 µM, first compound 1 µM
[11] = second compound 0.003 µM, first compound 3.16 µM
[12] = second compound 0.003 µM, first compound 10 µM
[13] = second compound 0.00949 µM, first compound 0.0316 µM
[14] = second compound 0.00949 µM, first compound 0.1 µM
[15] = second compound 0.00949 µM, first compound 0.316 µM
[16] = second compound 0.00949 µM, first compound 1 µM
[17] = second compound 0.00949 µM, first compound 3.16 µM
[18] = second compound 0.00949 µM, first compound 10 µM
[19] = second compound 0.03 µM, first compound 0.0316 µM
[20] = second compound 0.03 µM, first compound 0.1 µM
[21] = second compound 0.03 µM, first compound 0.316 µM
[22] = second compound 0.03 µM, first compound 1 µM
[23] = second compound 0.03 µM, first compound 3.16 µM
[24] = second compound 0.03 µM, first compound 10 µM
[25] = second compound 0.0949 µM, first compound 0.0316 µM
[26] = second compound 0.0949 µM, first compound 0.1 µM
[27] = second compound 0.0949 µM, first compound 0.316 µM
[28] = second compound 0.0949 µM, first compound 1 µM
[29] = second compound 0.0949 µM, first compound 3.16 µM
[30] = second compound 0.0949 µM, first compound 10 µM
[31] = second compound 0.3 µM, first compound 0.0316 µM
[32] = second compound 0.3 µM, first compound 0.1 µM
[33] = second compound 0.3 µM, first compound 0.316 µM
[34] = second compound 0.3 µM, first compound 1 µM
[35] = second compound 0.3 µM, first compound 3.16 µM
[36] = second compound 0.3 µM, first compound 10 µM
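Further: spheroids exposed to compound for 7 days before readout.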
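Wherever viability, T/C is given: 100% = DMSO vehicle control wells.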

Structure (SMILES): CC(C)NCC(C(=O)N1CCN(c2ncnc3c2C(C)CC3O)CC1)c1ccc(Cl)cc1 (stereo unspecified) + CCn1c(-c2cc(N3CCN(C)CC3)cnc2C(C)OC)c2c3cc(ccc31)-c1csc(n1)CC(NC(=O)C1CC1C)C(=O)N1CCCC(N1)C(=O)OCC(C)(C)C2
- IC50 (second compound 0.000949 µM): 7980 nM
- IC50 (second compound 0.003 µM): 3660 nM
- IC50 (second compound 0.00949 µM): < 31.6 nM
- IC50 (second compound 0.03 µM): < 31.6 nM
- IC50 (second compound 0.0949 µM): < 31.6 nM
- IC50 (second compound 0.3 µM): < 31.6 nM
- viability, T/C [1]: 92.1%
- viability, T/C [2]: 92.8%
- viability, T/C [3]: 74.8%
- viability, T/C [4]: 95.2%
- viability, T/C [5]: 75.2%
- viability, T/C [6]: 43.9%
- viability, T/C [7]: 78%
- viability, T/C [8]: 70.3%
- viability, T/C [9]: 57.6%
- viability, T/C [10]: 64.8%
- viability, T/C [11]: 56.9%
- viability, T/C [12]: 28.4%
- viability, T/C [13]: 49.6%
- viability, T/C [14]: 42.6%
- viability, T/C [15]: 48.6%
- viability, T/C [16]: 41.5%
- viability, T/C [17]: 26%
- viability, T/C [18]: 17.9%
- viability, T/C [19]: 30.9%
- viability, T/C [20]: 31.8%
- viability, T/C [21]: 28.5%
- viability, T/C [22]: 27.1%
- viability, T/C [23]: 12%
- viability, T/C [24]: 9.97%
- viability, T/C [25]: 23.8%
- viability, T/C [26]: 22.7%
- viability, T/C [27]: 22.1%
- viability, T/C [28]: 20.8%
- viability, T/C [29]: 7.71%
- viability, T/C [30]: 5.5%
- viability, T/C [31]: 19.9%
- viability, T/C [32]: 18%
- viability, T/C [33]: 16.7%
- viability, T/C [34]: 13.1%
- viability, T/C [35]: 6.93%
- viability, T/C [36]: 3.76%

Structure (SMILES): CC(Nc1ccc2c(c1)OCCn1cc(N3C(=O)OCC3C(F)F)nc1-2)C(N)=O (stereo unspecified) + CCn1c(-c2cc(N3CCN(C)CC3)cnc2C(C)OC)c2c3cc(ccc31)-c1csc(n1)CC(NC(=O)C1CC1C)C(=O)N1CCCC(N1)C(=O)OCC(C)(C)C2
- IC50 (second compound 0.000949 µM): 364 nM
- IC50 (second compound 0.003 µM): 95.1 nM
- IC50 (second compound 0.00949 µM): < 31.6 nM
- IC50 (second compound 0.03 µM): < 31.6 nM
- IC50 (second compound 0.0949 µM): < 31.6 nM
- IC50 (second compound 0.3 µM): < 31.6 nM
- viability, T/C [1]: 85.8%
- viability, T/C [2]: 85.2%
- viability, T/C [3]: 39.8%
- viability, T/C [4]: 39.1%
- viability, T/C [5]: 26.5%
- viability, T/C [6]: 11.5%
- viability, T/C [7]: 70.6%
- viability, T/C [8]: 47.3%
- viability, T/C [9]: 32.9%
- viability, T/C [10]: 22.4%
- viability, T/C [11]: 14.5%
- viability, T/C [12]: 5.29%
- viability, T/C [13]: 40.7%
- viability, T/C [14]: 25.1%
- viability, T/C [15]: 18.2%
- viability, T/C [16]: 11.3%
- viability, T/C [17]: 4.65%
- viability, T/C [18]: 3.19%
- viability, T/C [19]: 26.4%
- viability, T/C [20]: 17.9%
- viability, T/C [21]: 10.6%
- viability, T/C [22]: 5.37%
- viability, T/C [23]: 1.87%
- viability, T/C [24]: 1.22%
- viability, T/C [25]: 16.7%
- viability, T/C [26]: 11.5%
- viability, T/C [27]: 7.81%
- viability, T/C [28]: 3.68%
- viability, T/C [29]: 1.35%
- viability, T/C [30]: 0.91%
- viability, T/C [31]: 16.5%
- viability, T/C [32]: 11.3%
- viability, T/C [33]: 5.47%
- viability, T/C [34]: 3.22%
- viability, T/C [35]: 1.55%
- viability, T/C [36]: 1.07%

Structure (SMILES): CCN1CCN(Cc2ccc(Nc3ncc(F)c(-c4cc(F)c5nc(C)n(C(C)C)c5c4)n3)nc2)CC1 + CCn1c(-c2cccnc2C(C)OC)c2c3cc(ccc31)N1CCOC(CC(NC(=O)C(C(C)C)N(C)C(=O)C3(F)CCN(C(=O)C#CC(C)(C)N(C)C)CC3)C(=O)N3CCCC(N3)C(=O)OCC(C)(C)C2)C1
- IC50 (second compound 0.000949 µM): > 1000 nM
- IC50 (second compound 0.003 µM): > 1000 nM
- IC50 (second compound 0.00949 µM): > 1000 nM
- IC50 (second compound 0.03 µM): > 1000 nM
- IC50 (second compound 0.0949 µM): > 1000 nM
- IC50 (second compound 0.3 µM): > 1000 nM
- viability, T/C (second compound 0.000949 µM, first compound 0.00316 µM): 102%
- viability, T/C (second compound 0.000949 µM, first compound 0.01 µM): 92.2%
- viability, T/C [1]: 78.6%
- viability, T/C [2]: 88.5%
- viability, T/C [3]: 102%
- viability, T/C [4]: 99.6%
- viability, T/C (second compound 0.003 µM, first compound 0.00316 µM): 109%
- viability, T/C (second compound 0.003 µM, first compound 0.01 µM): 93.5%
- viability, T/C [7]: 81.5%
- viability, T/C [8]: 88.2%
- viability, T/C [9]: 103%
- viability, T/C [10]: 94.7%
- viability, T/C (second compound 0.00949 µM, first compound 0.00316 µM): 102%
- viability, T/C (second compound 0.00949 µM, first compound 0.01 µM): 99.4%
- viability, T/C [13]: 93.1%
- viability, T/C [14]: 86.5%
- viability, T/C [15]: 98.4%
- viability, T/C [16]: 109%
- viability, T/C (second compound 0.03 µM, first compound 0.00316 µM): 97.5%
- viability, T/C (second compound 0.03 µM, first compound 0.01 µM): 94.7%
- viability, T/C [19]: 85.8%
- viability, T/C [20]: 97.2%
- viability, T/C [21]: 88.2%
- viability, T/C [22]: 117%
- viability, T/C (second compound 0.0949 µM, first compound 0.00316 µM): 83.8%
- viability, T/C (second compound 0.0949 µM, first compound 0.01 µM): 92.8%
- viability, T/C [25]: 93.4%
- viability, T/C [26]: 93.1%
- viability, T/C [27]: 83.8%
- viability, T/C [28]: 107%
- viability, T/C (second compound 0.3 µM, first compound 0.00316 µM): 83.5%
- viability, T/C (second compound 0.3 µM, first compound 0.01 µM): 79.2%
- viability, T/C [31]: 79.5%
- viability, T/C [32]: 77.7%
- viability, T/C [33]: 93%
- viability, T/C [34]: 116%
